Where two headings read alike, the source gives them in different places.
Columns and labels:
OVCAR-5 = assay: NCI human tumor cell panel: OVCAR-5 (Ovarian Cancer); assay type: cell-based; settings: for GI50: OVCAR-5, read-out: Log10 GI50 (converted); for IC (TGI): OVCAR-5, read-out: Log10 TGI (converted)
BT-549 = assay: NCI human tumor cell panel: BT-549 (Breast Cancer); assay type: cell-based; settings: for GI50: BT-549, read-out: Log10 GI50 (converted); for IC (TGI): BT-549, read-out: Log10 TGI (converted)
[1] = tested on: panel of sixty different human tumor cell lines; assay: NCI human tumor cell panel: whole panel (mean graph summary); settings: for CC50: Homo sapiens; for Log10 TGI, Delta / Log10 TGI, Range: whole panel
CAKI-1 = assay: NCI human tumor cell panel: CAKI-1 (Renal Cancer); assay type: cell-based; settings: for GI50: CAKI-1, read-out: Log10 GI50 (converted); for IC (TGI): CAKI-1, read-out: Log10 TGI (converted)
COLO 205 = assay: NCI human tumor cell panel: COLO 205 (Colon Cancer); assay type: cell-based
SNB-75 = assay: NCI human tumor cell panel: SNB-75 (CNS Cancer); assay type: cell-based; settings: for GI50: SNB-75, read-out: Log10 GI50 (converted); for IC (TGI): SNB-75, read-out: Log10 TGI (converted)
RPMI-8226 = assay: NCI human tumor cell panel: RPMI-8226 (Leukemia); assay type: cell-based; settings: for GI50: RPMI-8226, read-out: Log10 GI50 (converted); for IC (TGI): RPMI-8226, read-out: Log10 TGI
HCC-2998 = assay: NCI human tumor cell panel: HCC-2998 (Colon Cancer); assay type: cell-based; settings: for GI50: HCC-2998, read-out: Log10 GI50 (converted); for IC (TGI): HCC-2998, read-out: Log10 TGI (converted)
KM12 = assay: NCI human tumor cell panel: KM12 (Colon Cancer); assay type: cell-based; settings: for GI50: KM12, read-out: Log10 GI50 (converted); for IC (TGI): KM12, read-out: Log10 TGI (converted)
K-562 = assay: NCI human tumor cell panel: K-562 (Leukemia); assay type: cell-based; settings: for GI50: K562, K-562, read-out: Log10 GI50 (converted); for IC (TGI): K562, K-562, read-out: Log10 TGI (converted)
HCT-15 = assay: NCI human tumor cell panel: HCT-15 (Colon Cancer); assay type: cell-based; settings: for GI50: HCT-15, read-out: Log10 GI50 (converted); for IC (TGI): HCT-15, read-out: Log10 TGI (converted)
DU-145 = assay: NCI human tumor cell panel: DU-145 (Prostate Cancer); assay type: cell-based; settings: for GI50: DU-145, read-out: Log10 GI50 (converted); for IC (TGI): DU-145, read-out: Log10 TGI (converted)
EKVX = assay: NCI human tumor cell panel: EKVX (Non-Small Cell Lung Cancer); assay type: cell-based; settings: for GI50: read-out: Log10 GI50 (converted); for IC (TGI): read-out: Log10 TGI (converted)
NCI-H522 = assay: NCI human tumor cell panel: NCI-H522 (Non-Small Cell Lung Cancer); settings: for GI50: NCI-H522, read-out: Log10 GI50 (converted); for IC (TGI): NCI-H522, read-out: Log10 TGI
OVCAR-8 = assay: NCI human tumor cell panel: OVCAR-8 (Ovarian Cancer); assay type: cell-based; settings: for GI50: OVCAR-8, read-out: Log10 GI50 (converted); for IC (TGI): OVCAR-8, read-out: Log10 TGI (converted)
RXF-393 = assay: NCI human tumor cell panel: RXF-393 (Renal Cancer); assay type: cell-based; settings: for GI50: RXF-393, read-out: Log10 GI50 (converted); for IC (TGI): RXF-393, read-out: Log10 TGI (converted)
SK-MEL-2 = assay: NCI human tumor cell panel: SK-MEL-2 (Melanoma); assay type: cell-based; settings: for GI50: SK-MEL-2, read-out: Log10 GI50 (converted); for IC (TGI): SK-MEL-2, read-out: Log10 TGI (converted)
SN12C = assay: NCI human tumor cell panel: SN12C (Renal Cancer); assay type: cell-based; settings: for GI50: read-out: Log10 GI50 (converted); for IC (TGI): read-out: Log10 TGI (converted)
786-0 = assay: NCI human tumor cell panel: 786-0 (Renal Cancer); assay type: cell-based; settings: for GI50: 786-0, read-out: Log10 GI50 (converted); for IC (TGI): 786-0, read-out: Log10 TGI (converted)
UO-31 = assay: NCI human tumor cell panel: UO-31 (Renal Cancer); assay type: cell-based; settings: for GI50: UO-31, read-out: Log10 GI50 (converted); for IC (TGI): UO-31, read-out: Log10 TGI (converted)
SF-268 = assay: NCI human tumor cell panel: SF-268 (CNS Cancer); assay type: cell-based; settings: for GI50: SF-268, read-out: Log10 GI50 (converted); for IC (TGI): SF-268, read-out: Log10 TGI (converted)
MDA-MB-231/ATCC = assay: NCI human tumor cell panel: MDA-MB-231/ATCC (Breast Cancer); assay type: cell-based; settings: for GI50: read-out: Log10 GI50 (converted)
LOX IMVI = assay: NCI human tumor cell panel: LOX IMVI (Melanoma); assay type: cell-based; settings: for GI50: read-out: Log10 GI50 (converted); for IC (TGI): read-out: Log10 TGI (converted)
NCI-H226 = assay: NCI human tumor cell panel: NCI-H226 (Non-Small Cell Lung Cancer); assay type: cell-based; settings: for GI50: NCI-H226, read-out: Log10 GI50 (converted); for IC (TGI): NCI-H226, read-out: Log10 TGI (converted)
HL-60(TB) = assay: NCI human tumor cell panel: HL-60(TB) (Leukemia); assay type: cell-based; settings: for GI50: read-out: Log10 GI50 (converted)
IGROV1 = assay: NCI human tumor cell panel: IGROV1 (Ovarian Cancer); assay type: cell-based; settings: for GI50: IGROV-1, IGROV1, read-out: Log10 GI50 (converted); for IC (TGI): IGROV-1, IGROV1, read-out: Log10 TGI (converted)
SW-620 = assay: NCI human tumor cell panel: SW-620 (Colon Cancer); assay type: cell-based; settings: for GI50: SW-620, read-out: Log10 GI50 (converted); for IC (TGI): SW-620, read-out: Log10 TGI (converted)
[2] = read-out: Log10 LC50, MG_MID, mean over the panel (converted)
[3] = read-out: Log10 LC50, row head (cell line) not given (converted)
[4] = Homo sapiens, MDA-MB-231, MDA-MB-231/ATCC

OCc1ccc(-c2ccc(-c3ccc(CO)[se]3)[se]2)[se]1 [compound 675247]
GI50 (OVCAR-5): 1.32 µM | IC (TGI) (OVCAR-5): 12.9 µM | GI50 (BT-549): 3.39 µM | IC (TGI) (BT-549): 14.1 µM | CC50 [1, 2]: 45.7 µM | CC50 [1, 3]: > 100 µM | Log10 GI50, MG_MID ([1]; mean over the panel): −5.65 | Log10 TGI, Delta [1]: 1.36 | Log10 TGI, Range [1]: 2.33 | GI50 (CAKI-1): 0.0741 µM | IC (TGI) (CAKI-1): 0.468 µM | GI50 (COLO 205; COLO 205, read-out: Log10 GI50 (converted)): 1.95 µM | IC (TGI) (COLO 205; COLO 205, read-out: Log10 TGI (converted)): 5.13 µM | GI50 (SNB-75): 14.8 µM | IC (TGI) (SNB-75): 38.9 µM | GI50 (RPMI-8226): 4.07 µM | IC (TGI) (RPMI-8226): > 100 µM | GI50 (HCC-2998): 0.851 µM | IC (TGI) (HCC-2998): 3.24 µM | GI50 (KM12): 4.47 µM | IC (TGI) (KM12): 15.1 µM | GI50 (K-562): 1.32 µM | IC (TGI) (K-562): 5.01 µM | GI50 (HCT-15): 3.8 µM | IC (TGI) (HCT-15): 12.3 µM | GI50 (DU-145): 6.92 µM | IC (TGI) (DU-145): 19.5 µM | GI50 (EKVX): 5.01 µM | IC (TGI) (EKVX): 34.7 µM | GI50 (NCI-H522): 1.66 µM | IC (TGI) (NCI-H522): 3.39 µM | GI50 (OVCAR-8): 3.72 µM | IC (TGI) (OVCAR-8): 17.8 µM | GI50 (RXF-393): 1.58 µM | IC (TGI) (RXF-393): 3.72 µM | GI50 (SK-MEL-2): 7.08 µM | IC (TGI) (SK-MEL-2): 24 µM | GI50 (SN12C): 2.75 µM | IC (TGI) (SN12C): 11.7 µM | GI50 (786-0): 2.75 µM | IC (TGI) (786-0): 6.31 µM | GI50 (UO-31): 5.25 µM | IC (TGI) (UO-31): 14.8 µM | GI50 (SF-268): 1.74 µM | IC (TGI) (SF-268): 4.37 µM | GI50 (MDA-MB-231/ATCC; [4]): 5.01 µM | Log10 GI50 (MDA-MB-231/ATCC; MDA-MB-231/ATCC): −5.27 | GI50 (LOX IMVI): 3.02 µM | IC (TGI) (LOX IMVI): 7.08 µM | GI50 (NCI-H226): 1.7 µM | IC (TGI) (NCI-H226): 3.89 µM | GI50 (HL-60(TB)): 4.07 µM | GI50 (IGROV1): 1.38 µM | IC (TGI) (IGROV1): 6.46 µM | GI50 (SW-620): 1.35 µM | IC (TGI) (SW-620): 3.63 µM

OCc1ccc(-c2ccc(-c3ccc(CO)[se]3)s2)[se]1 [compound 676632]
GI50 (OVCAR-5): 0.0132 µM | IC (TGI) (OVCAR-5): 0.0776 µM | GI50 (BT-549): 0.195 µM | IC (TGI) (BT-549): > 100 µM | CC50 [1, 2]: 69.2 µM | CC50 [1, 3]: > 100 µM | Log10 TGI ([1]; listed as head (cell line) not given): >−4.00 | Log10 GI50, MG_MID ([1]; mean over the panel): −5.16 | Log10 TGI, MG_MID ([1]; mean over the panel): −4.48 | Log10 TGI, Delta [1]: 2.89 | Log10 TGI, Range [1]: 3.37 | GI50 (CAKI-1): 0.0126 µM | IC (TGI) (CAKI-1): 0.123 µM | GI50 (SNB-75): > 100 µM | IC (TGI) (SNB-75): > 100 µM | GI50 (RPMI-8226): > 100 µM | IC (TGI) (RPMI-8226): > 100 µM | GI50 (HCC-2998): 0.178 µM | IC (TGI) (HCC-2998): 0.55 µM | GI50 (KM12): 0.537 µM | IC (TGI) (KM12): > 100 µM | GI50 (K-562): 0.0479 µM | IC (TGI) (K-562): > 100 µM | GI50 (HCT-15): 0.0447 µM | IC (TGI) (HCT-15): > 100 µM | GI50 (DU-145): 95.5 µM | IC (TGI) (DU-145): > 100 µM | GI50 (EKVX): 50.1 µM | IC (TGI) (EKVX): > 100 µM | GI50 (NCI-H522): > 100 µM | IC (TGI) (NCI-H522): > 100 µM | GI50 (OVCAR-8): > 100 µM | IC (TGI) (OVCAR-8): > 100 µM | GI50 (RXF-393): > 100 µM | IC (TGI) (RXF-393): > 100 µM | GI50 (SK-MEL-2): > 100 µM | IC (TGI) (SK-MEL-2): > 100 µM | GI50 (SN12C): > 100 µM | IC (TGI) (SN12C): > 100 µM | GI50 (786-0): > 100 µM | IC (TGI) (786-0): > 100 µM | GI50 (UO-31): > 100 µM | IC (TGI) (UO-31): > 100 µM | GI50 (SF-268): > 100 µM | IC (TGI) (SF-268): > 100 µM | GI50 (MDA-MB-231/ATCC; [4]): > 100 µM | IC (TGI) (MDA-MB-231/ATCC; Homo sapiens, MDA-MB-231, MDA-MB-231/ATCC, read-out: Log10 TGI (converted)): > 100 µM | GI50 (LOX IMVI): > 100 µM | IC (TGI) (LOX IMVI): < 100 µM | GI50 (NCI-H226): 0.0195 µM | IC (TGI) (NCI-H226): 0.0537 µM | GI50 (HL-60(TB)): > 100 µM | IC (TGI) (HL-60(TB); read-out: Log10 TGI): > 100 µM | GI50 (IGROV1): 0.0324 µM | IC (TGI) (IGROV1): 0.275 µM | GI50 (SW-620): > 100 µM | IC (TGI) (SW-620): > 100 µM

From patent US20040063662A1, “Selenophene anti-tumor agents” (priority 1996, published 2004)
